Laboratory results reported in the kinase profiling compilation of Christmann-Franck et al. (2016).

Columns and labels:
Experiment in all cases: KINOMEscan competition binding
Conditions in all cases: compound 10.0 µM
MAPKAPK2 (human) = MAPKAPK2 (human) (UniProt P49137)
MAP3K15 (human) = MAP3K15 (human) (UniProt Q6ZN16)
TNK2 (human) = TNK2 (human) (UniProt Q07912)
AURKA (human) = AURKA (human) (UniProt O14965)
PRKD3 (human) = PRKD3 (human) (UniProt O94806)
FRK (human) = FRK (human) (UniProt P42685)
STK16 (human) = STK16 (human) (UniProt O75716)
ABL2 (human) = ABL2 (human) (UniProt P42684)
PAK7 (human) = PAK7 (human) (UniProt Q9P286)
CDK14 (human) = CDK14 (human) (UniProt O94921)
MKNK1 (human) = MKNK1 (human) (UniProt Q9BUB5)
Sequence of MKNK1 (human) (Q9BUB5 whole entry, looked up): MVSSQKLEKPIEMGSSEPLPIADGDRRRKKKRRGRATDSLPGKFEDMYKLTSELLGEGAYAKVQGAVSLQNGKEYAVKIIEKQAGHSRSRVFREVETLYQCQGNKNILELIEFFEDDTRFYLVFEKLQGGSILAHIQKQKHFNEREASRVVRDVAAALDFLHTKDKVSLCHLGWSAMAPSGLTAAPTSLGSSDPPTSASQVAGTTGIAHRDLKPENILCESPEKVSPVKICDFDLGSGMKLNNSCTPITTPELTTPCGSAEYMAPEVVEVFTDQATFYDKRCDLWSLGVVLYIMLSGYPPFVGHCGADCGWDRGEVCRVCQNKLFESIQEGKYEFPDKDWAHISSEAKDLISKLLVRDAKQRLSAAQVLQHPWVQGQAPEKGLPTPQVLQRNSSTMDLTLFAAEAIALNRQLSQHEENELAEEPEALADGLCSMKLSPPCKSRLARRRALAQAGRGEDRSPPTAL

[1] = tested on: RET (human), P07949 [V804L]
PKN3 (M.tuberculosis) = PKN3 (M.tuberculosis) (UniProt Q6P5Z2)
Sequence of PKN3 (M.tuberculosis) (Q6P5Z2 whole entry, looked up): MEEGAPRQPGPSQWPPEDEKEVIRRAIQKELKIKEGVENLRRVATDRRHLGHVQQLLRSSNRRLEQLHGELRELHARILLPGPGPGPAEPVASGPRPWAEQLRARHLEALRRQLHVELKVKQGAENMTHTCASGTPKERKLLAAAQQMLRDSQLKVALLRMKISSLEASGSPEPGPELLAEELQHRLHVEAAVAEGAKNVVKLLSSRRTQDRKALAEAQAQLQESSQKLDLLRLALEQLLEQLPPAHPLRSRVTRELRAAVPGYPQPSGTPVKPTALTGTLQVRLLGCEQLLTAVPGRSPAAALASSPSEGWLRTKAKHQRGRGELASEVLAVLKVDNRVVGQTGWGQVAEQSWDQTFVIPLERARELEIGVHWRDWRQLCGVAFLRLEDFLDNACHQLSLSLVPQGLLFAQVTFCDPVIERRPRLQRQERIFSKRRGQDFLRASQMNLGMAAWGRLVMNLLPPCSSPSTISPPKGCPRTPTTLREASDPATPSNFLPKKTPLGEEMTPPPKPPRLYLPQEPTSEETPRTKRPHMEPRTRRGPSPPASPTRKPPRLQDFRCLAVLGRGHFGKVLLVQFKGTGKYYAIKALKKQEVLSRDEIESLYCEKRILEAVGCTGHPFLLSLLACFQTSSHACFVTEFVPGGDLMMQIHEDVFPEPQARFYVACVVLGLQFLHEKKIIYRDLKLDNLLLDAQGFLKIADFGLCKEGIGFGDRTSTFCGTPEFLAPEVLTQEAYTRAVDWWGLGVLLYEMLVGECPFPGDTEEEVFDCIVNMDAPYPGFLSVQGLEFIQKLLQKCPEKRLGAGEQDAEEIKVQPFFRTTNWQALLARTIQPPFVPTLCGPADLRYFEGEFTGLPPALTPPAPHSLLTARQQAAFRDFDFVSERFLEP

MARK4 (human) = MARK4 (human) (UniProt Q96L34)
INSR (human) = INSR (human) (UniProt P06213)
STK4 (human) = STK4 (human) (UniProt Q13043)
PKN2 (human) = PKN2 (human) (UniProt Q16513)
PHKG1 (human) = PHKG1 (human) (UniProt Q16816)
CDK19 (human) = CDK19 (human) (UniProt Q9BWU1)
CHEK1 (human) = CHEK1 (human) (UniProt O14757)
MARK3 (human) = MARK3 (human) (UniProt P27448)
Sequence of MARK3 (human) (P27448 whole entry, looked up): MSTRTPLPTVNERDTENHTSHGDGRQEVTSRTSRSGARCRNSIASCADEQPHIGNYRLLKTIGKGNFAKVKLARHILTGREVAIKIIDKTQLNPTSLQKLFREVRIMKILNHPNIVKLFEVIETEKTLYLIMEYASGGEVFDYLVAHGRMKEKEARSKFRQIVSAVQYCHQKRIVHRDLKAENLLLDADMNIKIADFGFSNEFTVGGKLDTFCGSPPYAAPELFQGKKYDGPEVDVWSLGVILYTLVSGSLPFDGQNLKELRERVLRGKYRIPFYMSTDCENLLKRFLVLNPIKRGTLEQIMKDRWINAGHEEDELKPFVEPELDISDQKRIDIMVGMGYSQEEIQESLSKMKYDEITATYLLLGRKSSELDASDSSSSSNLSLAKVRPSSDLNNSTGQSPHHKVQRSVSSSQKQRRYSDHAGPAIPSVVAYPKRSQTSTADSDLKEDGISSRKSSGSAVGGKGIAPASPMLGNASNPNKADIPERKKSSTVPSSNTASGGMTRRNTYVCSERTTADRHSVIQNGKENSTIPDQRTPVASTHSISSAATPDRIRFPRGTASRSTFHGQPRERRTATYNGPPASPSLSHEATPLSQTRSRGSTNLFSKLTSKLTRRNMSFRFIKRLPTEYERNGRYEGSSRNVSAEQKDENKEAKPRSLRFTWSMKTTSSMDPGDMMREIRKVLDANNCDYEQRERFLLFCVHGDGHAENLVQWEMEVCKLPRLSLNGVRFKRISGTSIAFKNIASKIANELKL

MAP2K5 (human) = MAP2K5 (human) (UniProt Q13163)
STK39 (human) = STK39 (human) (UniProt Q9UEW8)
ADCK3 (human) = ADCK3 (human) (UniProt Q8NI60)
RPS6KA2 KD1 (human) = RPS6KA2 KD1 (human) (UniProt Q15349)
Sequence of RPS6KA2 KD1 (human) (Q15349 whole entry, looked up): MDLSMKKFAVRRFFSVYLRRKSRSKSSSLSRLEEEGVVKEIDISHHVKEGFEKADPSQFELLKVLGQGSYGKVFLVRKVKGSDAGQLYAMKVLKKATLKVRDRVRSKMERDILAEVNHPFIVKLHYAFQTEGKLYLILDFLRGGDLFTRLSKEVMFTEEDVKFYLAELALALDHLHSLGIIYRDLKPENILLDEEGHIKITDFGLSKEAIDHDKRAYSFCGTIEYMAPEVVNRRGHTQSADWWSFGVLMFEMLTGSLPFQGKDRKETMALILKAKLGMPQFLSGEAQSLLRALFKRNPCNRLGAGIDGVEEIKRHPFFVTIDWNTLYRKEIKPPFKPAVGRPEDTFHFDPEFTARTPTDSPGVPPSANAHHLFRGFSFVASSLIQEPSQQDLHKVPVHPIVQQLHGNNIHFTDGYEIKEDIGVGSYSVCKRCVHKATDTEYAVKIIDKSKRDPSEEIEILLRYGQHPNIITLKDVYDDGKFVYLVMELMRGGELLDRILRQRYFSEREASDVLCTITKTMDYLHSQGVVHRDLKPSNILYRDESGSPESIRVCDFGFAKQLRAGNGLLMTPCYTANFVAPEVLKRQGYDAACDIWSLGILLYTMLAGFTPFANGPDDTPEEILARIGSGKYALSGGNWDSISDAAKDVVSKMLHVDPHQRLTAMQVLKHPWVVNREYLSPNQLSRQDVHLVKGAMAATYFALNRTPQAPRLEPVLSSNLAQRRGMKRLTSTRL

[2] = tested on: FGFR3 (human), P22607 [G697C]
DCLK3 (human) = DCLK3 (human) (UniProt Q9C098)
[3] = molecular target: JAK1 JH2 pseudokinase (human) (UniProt P23458)
Sequence of JAK1 JH2 pseudokinase (human) (P23458 whole entry, looked up): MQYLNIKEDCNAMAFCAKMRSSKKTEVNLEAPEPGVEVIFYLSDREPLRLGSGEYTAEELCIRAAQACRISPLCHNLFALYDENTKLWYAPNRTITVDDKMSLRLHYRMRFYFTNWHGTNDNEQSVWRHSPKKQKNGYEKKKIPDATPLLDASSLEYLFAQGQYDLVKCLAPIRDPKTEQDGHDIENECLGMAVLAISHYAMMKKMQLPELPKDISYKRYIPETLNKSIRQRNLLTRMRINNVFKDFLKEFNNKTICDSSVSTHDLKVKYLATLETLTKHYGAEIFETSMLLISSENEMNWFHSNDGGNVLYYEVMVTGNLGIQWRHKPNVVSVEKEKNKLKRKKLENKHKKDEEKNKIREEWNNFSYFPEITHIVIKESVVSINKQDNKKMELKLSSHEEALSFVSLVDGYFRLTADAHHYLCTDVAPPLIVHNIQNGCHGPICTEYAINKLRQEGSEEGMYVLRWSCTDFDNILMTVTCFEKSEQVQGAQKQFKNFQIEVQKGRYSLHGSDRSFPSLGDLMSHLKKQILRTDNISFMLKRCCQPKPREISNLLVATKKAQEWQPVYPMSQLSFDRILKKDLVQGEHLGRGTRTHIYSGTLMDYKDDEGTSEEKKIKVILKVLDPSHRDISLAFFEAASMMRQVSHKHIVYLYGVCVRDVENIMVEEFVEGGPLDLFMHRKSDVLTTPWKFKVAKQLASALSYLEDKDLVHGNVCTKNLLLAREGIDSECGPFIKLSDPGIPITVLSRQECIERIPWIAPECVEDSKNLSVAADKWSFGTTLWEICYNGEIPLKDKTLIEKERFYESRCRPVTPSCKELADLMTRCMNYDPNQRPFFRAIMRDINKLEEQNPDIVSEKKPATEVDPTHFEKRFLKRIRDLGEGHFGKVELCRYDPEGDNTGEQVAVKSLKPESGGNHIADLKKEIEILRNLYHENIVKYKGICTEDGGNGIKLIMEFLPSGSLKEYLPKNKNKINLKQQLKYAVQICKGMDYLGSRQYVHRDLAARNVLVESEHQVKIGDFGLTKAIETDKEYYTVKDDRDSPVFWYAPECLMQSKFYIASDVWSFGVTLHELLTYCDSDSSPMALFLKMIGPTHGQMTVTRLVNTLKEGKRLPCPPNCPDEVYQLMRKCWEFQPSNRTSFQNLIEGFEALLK

NEK1 (human) = NEK1 (human) (UniProt Q96PY6)
SLK (human) = SLK (human) (UniProt Q9H2G2)
RIOK2 (human) = RIOK2 (human) (UniProt Q9BVS4)
TGFBR2 (human) = TGFBR2 (human) (UniProt P37173)
CSNK2A2 (human) = CSNK2A2 (human) (UniProt P19784)
DAPK1 (human) = DAPK1 (human) (UniProt P53355)
SRPK1 (human) = SRPK1 (human) (UniProt Q96SB4)
EPHB3 (human) = EPHB3 (human) (UniProt P54753)
EPHA2 (human) = EPHA2 (human) (UniProt P29317)
Sequence of EPHA2 (human) (P29317 whole entry, looked up): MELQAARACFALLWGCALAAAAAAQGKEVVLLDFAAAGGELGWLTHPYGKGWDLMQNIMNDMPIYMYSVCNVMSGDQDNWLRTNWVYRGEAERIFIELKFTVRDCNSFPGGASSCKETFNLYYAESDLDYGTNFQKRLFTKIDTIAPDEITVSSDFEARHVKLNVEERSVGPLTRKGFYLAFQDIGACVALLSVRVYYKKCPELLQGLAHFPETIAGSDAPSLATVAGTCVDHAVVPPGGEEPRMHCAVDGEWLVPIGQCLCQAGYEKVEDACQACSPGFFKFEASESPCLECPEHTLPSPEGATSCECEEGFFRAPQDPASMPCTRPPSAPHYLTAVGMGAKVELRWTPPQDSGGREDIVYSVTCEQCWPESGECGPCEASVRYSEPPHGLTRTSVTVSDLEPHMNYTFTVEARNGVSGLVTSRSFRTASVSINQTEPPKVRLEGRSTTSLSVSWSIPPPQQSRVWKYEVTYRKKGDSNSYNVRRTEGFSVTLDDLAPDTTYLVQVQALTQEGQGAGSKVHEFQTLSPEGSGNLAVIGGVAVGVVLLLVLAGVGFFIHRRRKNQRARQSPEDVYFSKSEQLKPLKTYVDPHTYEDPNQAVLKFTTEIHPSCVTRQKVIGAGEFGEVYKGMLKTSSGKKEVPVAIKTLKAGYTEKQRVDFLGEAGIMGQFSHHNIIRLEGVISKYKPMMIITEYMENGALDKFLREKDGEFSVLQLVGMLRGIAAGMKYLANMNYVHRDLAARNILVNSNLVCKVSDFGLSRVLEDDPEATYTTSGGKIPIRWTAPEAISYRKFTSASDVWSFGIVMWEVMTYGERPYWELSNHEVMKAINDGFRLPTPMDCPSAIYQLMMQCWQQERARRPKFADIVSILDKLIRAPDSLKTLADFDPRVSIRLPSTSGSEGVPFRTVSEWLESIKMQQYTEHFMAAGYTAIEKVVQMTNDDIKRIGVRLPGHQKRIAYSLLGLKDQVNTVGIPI

PHKG2 (human) = PHKG2 (human) (UniProt P15735)
KDR (human) = KDR (human) (UniProt P35968)
NEK11 (human) = NEK11 (human) (UniProt Q8NG66)

CCCS(=O)(=O)Nc1ccc(F)c(C(=O)c2c[nH]c3ncc(Cl)cc23)c1F
kinase still bound, per cent of control (MAPKAPK2 (human)): 100%
kinase still bound, per cent of control (MAP3K15 (human)): 74%
kinase still bound, per cent of control (TNK2 (human)): 8.2%
kinase still bound, per cent of control (AURKA (human)): 60%
kinase still bound, per cent of control (PRKD3 (human)): 100%
kinase still bound, per cent of control (FRK (human)): 19%
kinase still bound, per cent of control (STK16 (human)): 18%
kinase still bound, per cent of control (ABL2 (human)): 36%
kinase still bound, per cent of control (PAK7 (human)): 44%
kinase still bound, per cent of control (CDK14 (human)): 100%
kinase still bound, per cent of control (MKNK1 (human)): 100%
kinase still bound, per cent of control [1]: 96%
kinase still bound, per cent of control (PKN3 (M.tuberculosis)): 46%
kinase still bound, per cent of control (MARK4 (human)): 72%
kinase still bound, per cent of control (INSR (human)): 83%
kinase still bound, per cent of control (STK4 (human)): 38%
kinase still bound, per cent of control (PKN2 (human)): 100%
kinase still bound, per cent of control (PHKG1 (human)): 100%
kinase still bound, per cent of control (CDK19 (human)): 0.8%
kinase still bound, per cent of control (CHEK1 (human)): 82%
kinase still bound, per cent of control (MARK3 (human)): 74%
kinase still bound, per cent of control (MAP2K5 (human)): 0.15%
kinase still bound, per cent of control (STK39 (human)): 100%
kinase still bound, per cent of control (ADCK3 (human)): 92%
kinase still bound, per cent of control (RPS6KA2 KD1 (human)): 67%
kinase still bound, per cent of control [2]: 100%
kinase still bound, per cent of control (DCLK3 (human)): 26%
kinase still bound, per cent of control [3]: 100%
kinase still bound, per cent of control (NEK1 (human)): 72%
kinase still bound, per cent of control (SLK (human)): 15%
kinase still bound, per cent of control (RIOK2 (human)): 3%
kinase still bound, per cent of control (TGFBR2 (human)): 6.6%
kinase still bound, per cent of control (CSNK2A2 (human)): 12%
kinase still bound, per cent of control (DAPK1 (human)): 89%
kinase still bound, per cent of control (SRPK1 (human)): 100%
kinase still bound, per cent of control (EPHB3 (human)): 100%
kinase still bound, per cent of control (EPHA2 (human)): 100%
kinase still bound, per cent of control (PHKG2 (human)): 52%

Cc1cn(-c2cc(C(=O)Nc3ccc(C)c(NC(=O)c4ccno4)c3)cc(C(F)(F)F)c2)cn1
kinase still bound, per cent of control (MAPKAPK2 (human)): 100%
kinase still bound, per cent of control (MAP3K15 (human)): 100%
kinase still bound, per cent of control (TNK2 (human)): 100%
kinase still bound, per cent of control (KDR (human)): 100%
kinase still bound, per cent of control (AURKA (human)): 100%
kinase still bound, per cent of control (PRKD3 (human)): 100%
kinase still bound, per cent of control (FRK (human)): 0.85%
kinase still bound, per cent of control (STK16 (human)): 100%
kinase still bound, per cent of control (ABL2 (human)): 1.8%
kinase still bound, per cent of control (PAK7 (human)): 100%
kinase still bound, per cent of control (CDK14 (human)): 100%
kinase still bound, per cent of control (MKNK1 (human)): 100%
kinase still bound, per cent of control [1]: 100%
kinase still bound, per cent of control (MARK4 (human)): 100%
kinase still bound, per cent of control (INSR (human)): 100%
kinase still bound, per cent of control (STK4 (human)): 100%
kinase still bound, per cent of control (PKN2 (human)): 100%
kinase still bound, per cent of control (PHKG1 (human)): 100%
kinase still bound, per cent of control (CDK19 (human)): 100%
kinase still bound, per cent of control (CHEK1 (human)): 100%
kinase still bound, per cent of control (MARK3 (human)): 100%
kinase still bound, per cent of control (STK39 (human)): 100%
kinase still bound, per cent of control (ADCK3 (human)): 100%
kinase still bound, per cent of control (RPS6KA2 KD1 (human)): 100%
kinase still bound, per cent of control [2]: 100%
kinase still bound, per cent of control (DCLK3 (human)): 100%
kinase still bound, per cent of control [3]: 100%
kinase still bound, per cent of control (NEK1 (human)): 100%
kinase still bound, per cent of control (SLK (human)): 100%
kinase still bound, per cent of control (RIOK2 (human)): 100%
kinase still bound, per cent of control (TGFBR2 (human)): 100%
kinase still bound, per cent of control (CSNK2A2 (human)): 100%
kinase still bound, per cent of control (DAPK1 (human)): 100%
kinase still bound, per cent of control (SRPK1 (human)): 100%
kinase still bound, per cent of control (EPHB3 (human)): 27%
kinase still bound, per cent of control (EPHA2 (human)): 1.6%
kinase still bound, per cent of control (PHKG2 (human)): 100%

CCN(CCO)CCCOc1ccc2c(Nc3cc(CC(=O)Nc4cccc(F)c4)[nH]n3)ncnc2c1
kinase still bound, per cent of control (MAPKAPK2 (human)): 100%
kinase still bound, per cent of control (NEK11 (human)): 98%
kinase still bound, per cent of control (MAP3K15 (human)): 100%
kinase still bound, per cent of control (TNK2 (human)): 100%
kinase still bound, per cent of control (KDR (human)): 2.7%
kinase still bound, per cent of control (AURKA (human)): 6.5%
kinase still bound, per cent of control (PRKD3 (human)): 63%
kinase still bound, per cent of control (FRK (human)): 90%
kinase still bound, per cent of control (STK16 (human)): 100%
kinase still bound, per cent of control (PAK7 (human)): 100%
kinase still bound, per cent of control (CDK14 (human)): 100%
kinase still bound, per cent of control (MKNK1 (human)): 68%
kinase still bound, per cent of control [1]: 2%
kinase still bound, per cent of control (PKN3 (M.tuberculosis)): 50%
kinase still bound, per cent of control (MARK4 (human)): 100%
kinase still bound, per cent of control (INSR (human)): 75%
kinase still bound, per cent of control (STK4 (human)): 40%
kinase still bound, per cent of control (PKN2 (human)): 86%
kinase still bound, per cent of control (PHKG1 (human)): 35%
kinase still bound, per cent of control (CDK19 (human)): 100%
kinase still bound, per cent of control (MARK3 (human)): 88%
kinase still bound, per cent of control (MAP2K5 (human)): 0.4%
kinase still bound, per cent of control (STK39 (human)): 100%
kinase still bound, per cent of control (ADCK3 (human)): 85%
kinase still bound, per cent of control (RPS6KA2 KD1 (human)): 80%
kinase still bound, per cent of control [2]: 100%
kinase still bound, per cent of control (DCLK3 (human)): 86%
kinase still bound, per cent of control [3]: 100%
kinase still bound, per cent of control (SLK (human)): 64%
kinase still bound, per cent of control (RIOK2 (human)): 58%
kinase still bound, per cent of control (TGFBR2 (human)): 100%
kinase still bound, per cent of control (CSNK2A2 (human)): 86%
kinase still bound, per cent of control (DAPK1 (human)): 80%
kinase still bound, per cent of control (SRPK1 (human)): 100%
kinase still bound, per cent of control (EPHB3 (human)): 100%
kinase still bound, per cent of control (EPHA2 (human)): 76%
kinase still bound, per cent of control (PHKG2 (human)): 81%

CC(=O)c1c(C)c2cnc(Nc3ccc(N4CCNCC4)cn3)nc2n(C2CCCC2)c1=O
kinase still bound, per cent of control (NEK11 (human)): 31%
kinase still bound, per cent of control (MAP3K15 (human)): 11%
kinase still bound, per cent of control (TNK2 (human)): 92%
kinase still bound, per cent of control (AURKA (human)): 83%
kinase still bound, per cent of control (PRKD3 (human)): 0.75%
kinase still bound, per cent of control (STK16 (human)): 3.4%
kinase still bound, per cent of control (ABL2 (human)): 97%
kinase still bound, per cent of control (PAK7 (human)): 35%
kinase still bound, per cent of control (CDK14 (human)): 5%
kinase still bound, per cent of control [1]: 65%
kinase still bound, per cent of control (PKN3 (M.tuberculosis)): 1%
kinase still bound, per cent of control (MARK4 (human)): 63%
kinase still bound, per cent of control (INSR (human)): 67%
kinase still bound, per cent of control (STK4 (human)): 74%
kinase still bound, per cent of control (PKN2 (human)): 48%
kinase still bound, per cent of control (PHKG1 (human)): 18%
kinase still bound, per cent of control (CDK19 (human)): 100%
kinase still bound, per cent of control (CHEK1 (human)): 20%
kinase still bound, per cent of control (MARK3 (human)): 8%
kinase still bound, per cent of control (MAP2K5 (human)): 62%
kinase still bound, per cent of control (STK39 (human)): 6.8%
kinase still bound, per cent of control (ADCK3 (human)): 63%
kinase still bound, per cent of control (RPS6KA2 KD1 (human)): 14%
kinase still bound, per cent of control (DCLK3 (human)): 9.6%
kinase still bound, per cent of control (NEK1 (human)): 61%
kinase still bound, per cent of control (RIOK2 (human)): 56%
kinase still bound, per cent of control (CSNK2A2 (human)): 0.65%
kinase still bound, per cent of control (EPHB3 (human)): 91%
kinase still bound, per cent of control (EPHA2 (human)): 95%
kinase still bound, per cent of control (PHKG2 (human)): 5%
